Test results published in patent US11572590B2, “Methods for evaluating tumor cell spheroids using 3D microfluidic cell culture device” (Dana-Farber Cancer Institute, Inc., priority 2017, dated 2023).
Read-outs that look alike come from different tables or passages of the source.

Experiments:
Test in all cases: SelectScreen Kinase Profiling, single point inhibition and IC50 for off-target kinases
Format in all cases: biochemical
off-target kinases [1] = molecular target: T1, off-target kinases (Homo sapiens, UniProt P29320); conditions: EPHA3, LanthaScreen Binding
T1 sequence (P29320 21-983): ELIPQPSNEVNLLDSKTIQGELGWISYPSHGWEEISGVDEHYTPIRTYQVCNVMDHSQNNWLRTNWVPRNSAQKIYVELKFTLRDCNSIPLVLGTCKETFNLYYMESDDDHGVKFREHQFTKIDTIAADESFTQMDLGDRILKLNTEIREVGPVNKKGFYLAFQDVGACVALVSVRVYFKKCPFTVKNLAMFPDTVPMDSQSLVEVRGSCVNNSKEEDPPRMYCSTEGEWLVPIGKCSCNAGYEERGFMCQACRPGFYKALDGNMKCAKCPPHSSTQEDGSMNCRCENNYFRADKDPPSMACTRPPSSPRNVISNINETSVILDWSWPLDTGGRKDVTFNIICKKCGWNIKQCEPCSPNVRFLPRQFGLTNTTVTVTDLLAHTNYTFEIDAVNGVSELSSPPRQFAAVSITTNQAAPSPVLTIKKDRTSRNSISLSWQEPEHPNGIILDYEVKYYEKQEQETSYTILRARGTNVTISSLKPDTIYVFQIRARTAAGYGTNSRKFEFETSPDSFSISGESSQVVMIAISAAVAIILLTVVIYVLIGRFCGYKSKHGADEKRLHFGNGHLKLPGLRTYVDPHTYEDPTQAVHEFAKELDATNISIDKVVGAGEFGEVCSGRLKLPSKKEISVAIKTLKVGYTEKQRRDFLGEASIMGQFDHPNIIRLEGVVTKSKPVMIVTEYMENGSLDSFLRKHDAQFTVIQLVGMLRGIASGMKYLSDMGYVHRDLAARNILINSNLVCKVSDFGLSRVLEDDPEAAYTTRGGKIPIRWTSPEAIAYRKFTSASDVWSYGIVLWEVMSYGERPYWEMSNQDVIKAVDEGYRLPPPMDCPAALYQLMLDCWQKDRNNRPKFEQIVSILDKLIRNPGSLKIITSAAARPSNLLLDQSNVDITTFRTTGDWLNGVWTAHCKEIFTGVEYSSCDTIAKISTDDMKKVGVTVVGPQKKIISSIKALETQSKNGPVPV

off-target kinases [2] = molecular target: off-target kinases (Homo sapiens, UniProt P27361); conditions: MAPK3 (ERK1), ZLYTE, ATP Km app
off-target kinases [3] = molecular target: off-target kinases (Homo sapiens, UniProt P53779); conditions: MAPK10 (JNK3)
off-target kinases [4] = molecular target: off-target kinases (Homo sapiens, UniProt P23443); conditions: RPS6KB1 (p70S6K), ZLYTE, ATP Km app
off-target kinases [5] = molecular target: off-target kinases (Homo sapiens, UniProt P23458); conditions: JAK1, ZLYTE, ATP Km app
off-target kinases [6] = molecular target: off-target kinases (Homo sapiens, UniProt P08581); conditions: MET (cMet), ZLYTE, ATP Km app
off-target kinases [7] = molecular target: off-target kinases (Homo sapiens, UniProt Q15418); conditions: RPS6KA1 (RSK1), ZLYTE, ATP Km app
off-target kinases [8] = molecular target: off-target kinases (Homo sapiens, UniProt P08581, M1250T); conditions: MET M1250T, mutant y, ZLYTE, ATP Km app

Chain of off-target kinases (Homo sapiens, UniProt P53779) (P53779 whole entry): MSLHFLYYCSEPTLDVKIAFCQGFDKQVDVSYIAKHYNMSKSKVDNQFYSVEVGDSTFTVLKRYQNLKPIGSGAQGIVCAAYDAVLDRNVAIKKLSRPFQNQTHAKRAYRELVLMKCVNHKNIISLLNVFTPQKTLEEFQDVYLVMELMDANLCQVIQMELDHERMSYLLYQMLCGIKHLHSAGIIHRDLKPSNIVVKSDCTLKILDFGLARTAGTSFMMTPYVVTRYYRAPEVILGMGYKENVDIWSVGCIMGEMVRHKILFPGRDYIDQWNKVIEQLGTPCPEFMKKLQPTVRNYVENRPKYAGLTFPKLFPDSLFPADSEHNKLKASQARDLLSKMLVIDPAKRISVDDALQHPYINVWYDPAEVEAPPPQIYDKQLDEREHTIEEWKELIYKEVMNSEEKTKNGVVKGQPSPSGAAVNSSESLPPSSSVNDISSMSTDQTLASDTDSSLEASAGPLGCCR
Chain of off-target kinases (Homo sapiens, UniProt P08581) (P08581 25-1390): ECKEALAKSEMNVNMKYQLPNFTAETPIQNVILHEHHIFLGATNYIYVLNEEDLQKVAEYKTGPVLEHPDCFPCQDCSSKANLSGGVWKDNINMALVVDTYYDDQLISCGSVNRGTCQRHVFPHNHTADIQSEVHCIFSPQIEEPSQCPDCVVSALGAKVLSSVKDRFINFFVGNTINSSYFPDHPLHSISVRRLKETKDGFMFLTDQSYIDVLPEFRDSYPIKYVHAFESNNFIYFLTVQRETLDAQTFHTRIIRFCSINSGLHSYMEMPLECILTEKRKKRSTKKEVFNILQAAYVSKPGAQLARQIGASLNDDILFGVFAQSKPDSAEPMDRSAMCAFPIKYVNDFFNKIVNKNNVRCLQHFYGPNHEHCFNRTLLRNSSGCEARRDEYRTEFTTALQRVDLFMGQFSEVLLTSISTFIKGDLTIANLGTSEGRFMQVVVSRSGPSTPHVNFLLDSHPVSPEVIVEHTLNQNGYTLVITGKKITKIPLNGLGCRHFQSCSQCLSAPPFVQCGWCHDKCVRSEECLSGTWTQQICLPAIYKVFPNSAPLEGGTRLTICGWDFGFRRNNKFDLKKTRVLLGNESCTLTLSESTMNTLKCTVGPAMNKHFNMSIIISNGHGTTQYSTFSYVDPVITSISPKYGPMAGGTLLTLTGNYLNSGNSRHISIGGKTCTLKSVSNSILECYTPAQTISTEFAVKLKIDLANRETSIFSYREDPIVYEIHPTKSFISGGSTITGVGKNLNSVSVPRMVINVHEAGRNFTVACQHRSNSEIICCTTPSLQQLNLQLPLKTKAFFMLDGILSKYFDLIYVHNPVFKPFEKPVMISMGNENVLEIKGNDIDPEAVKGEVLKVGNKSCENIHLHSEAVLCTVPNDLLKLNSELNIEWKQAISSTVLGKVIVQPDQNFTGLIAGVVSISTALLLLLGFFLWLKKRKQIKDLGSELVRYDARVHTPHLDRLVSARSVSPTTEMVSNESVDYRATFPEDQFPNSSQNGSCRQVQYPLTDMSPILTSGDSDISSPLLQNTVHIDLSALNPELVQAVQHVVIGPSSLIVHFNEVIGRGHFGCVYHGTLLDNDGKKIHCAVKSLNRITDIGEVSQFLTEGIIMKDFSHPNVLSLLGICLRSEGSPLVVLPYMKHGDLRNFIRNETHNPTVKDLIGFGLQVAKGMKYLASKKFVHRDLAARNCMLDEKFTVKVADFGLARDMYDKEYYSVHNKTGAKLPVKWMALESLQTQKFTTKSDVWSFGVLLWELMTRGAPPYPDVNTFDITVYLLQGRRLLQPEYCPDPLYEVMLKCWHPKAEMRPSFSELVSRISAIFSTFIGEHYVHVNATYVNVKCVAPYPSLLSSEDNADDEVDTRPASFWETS
Chain of off-target kinases (Homo sapiens, UniProt P23458) (P23458 whole entry): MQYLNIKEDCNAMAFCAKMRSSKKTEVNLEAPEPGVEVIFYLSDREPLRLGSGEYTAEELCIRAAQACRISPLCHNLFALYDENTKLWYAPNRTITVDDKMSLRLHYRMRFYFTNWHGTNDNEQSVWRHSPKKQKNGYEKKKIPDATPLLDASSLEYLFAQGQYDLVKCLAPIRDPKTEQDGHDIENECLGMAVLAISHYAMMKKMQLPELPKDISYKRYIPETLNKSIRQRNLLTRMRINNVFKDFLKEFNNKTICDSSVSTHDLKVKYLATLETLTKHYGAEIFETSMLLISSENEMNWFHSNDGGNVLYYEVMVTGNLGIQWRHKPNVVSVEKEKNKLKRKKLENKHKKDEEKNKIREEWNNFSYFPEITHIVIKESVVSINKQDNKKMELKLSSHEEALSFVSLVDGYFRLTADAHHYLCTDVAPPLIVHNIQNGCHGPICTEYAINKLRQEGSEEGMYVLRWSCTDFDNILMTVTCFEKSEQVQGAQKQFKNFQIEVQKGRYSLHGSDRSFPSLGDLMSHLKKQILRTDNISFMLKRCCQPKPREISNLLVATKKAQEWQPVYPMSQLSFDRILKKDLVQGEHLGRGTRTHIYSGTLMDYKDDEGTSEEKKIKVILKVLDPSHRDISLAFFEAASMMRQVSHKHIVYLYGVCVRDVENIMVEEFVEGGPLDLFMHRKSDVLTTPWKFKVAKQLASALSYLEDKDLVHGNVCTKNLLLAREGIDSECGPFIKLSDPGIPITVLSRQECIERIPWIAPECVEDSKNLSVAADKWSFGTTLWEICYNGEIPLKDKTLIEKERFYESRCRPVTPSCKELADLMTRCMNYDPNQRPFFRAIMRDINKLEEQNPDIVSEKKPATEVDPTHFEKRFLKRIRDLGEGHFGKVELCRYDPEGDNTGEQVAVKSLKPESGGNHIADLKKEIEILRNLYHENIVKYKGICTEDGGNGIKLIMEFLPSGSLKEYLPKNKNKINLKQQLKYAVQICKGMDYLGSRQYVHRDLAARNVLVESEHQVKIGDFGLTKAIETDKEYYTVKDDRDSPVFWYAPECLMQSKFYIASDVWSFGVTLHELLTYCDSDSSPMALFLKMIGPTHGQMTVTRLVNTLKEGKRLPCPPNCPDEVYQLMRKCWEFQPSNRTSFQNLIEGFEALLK
Chain of off-target kinases (Homo sapiens, UniProt P23443) (P23443 whole entry): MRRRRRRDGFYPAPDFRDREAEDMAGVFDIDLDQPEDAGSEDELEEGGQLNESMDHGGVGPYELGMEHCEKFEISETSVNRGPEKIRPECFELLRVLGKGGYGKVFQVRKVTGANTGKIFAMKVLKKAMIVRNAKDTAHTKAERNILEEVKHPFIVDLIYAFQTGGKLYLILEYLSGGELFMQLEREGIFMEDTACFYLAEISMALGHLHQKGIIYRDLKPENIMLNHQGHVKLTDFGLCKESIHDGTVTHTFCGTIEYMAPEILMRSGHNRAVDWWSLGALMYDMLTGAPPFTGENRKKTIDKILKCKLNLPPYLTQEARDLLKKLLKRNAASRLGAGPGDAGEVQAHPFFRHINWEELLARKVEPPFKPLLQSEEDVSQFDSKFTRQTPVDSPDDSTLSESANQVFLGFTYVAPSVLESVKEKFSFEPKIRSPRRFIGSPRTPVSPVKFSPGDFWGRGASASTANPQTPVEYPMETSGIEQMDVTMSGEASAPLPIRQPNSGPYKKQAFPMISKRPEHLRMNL
Chain of off-target kinases (Homo sapiens, UniProt P27361) (P27361 whole entry): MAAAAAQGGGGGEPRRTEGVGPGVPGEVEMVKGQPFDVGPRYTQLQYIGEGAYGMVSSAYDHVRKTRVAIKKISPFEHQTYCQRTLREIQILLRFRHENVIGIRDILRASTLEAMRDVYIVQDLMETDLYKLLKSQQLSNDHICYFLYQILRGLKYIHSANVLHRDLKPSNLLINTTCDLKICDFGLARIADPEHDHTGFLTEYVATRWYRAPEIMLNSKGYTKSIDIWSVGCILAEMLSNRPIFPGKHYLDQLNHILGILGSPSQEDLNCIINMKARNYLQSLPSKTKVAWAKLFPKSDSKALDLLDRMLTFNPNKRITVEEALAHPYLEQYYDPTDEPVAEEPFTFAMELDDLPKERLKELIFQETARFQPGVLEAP
Chain of off-target kinases (Homo sapiens, UniProt Q15418) (Q15418 whole entry): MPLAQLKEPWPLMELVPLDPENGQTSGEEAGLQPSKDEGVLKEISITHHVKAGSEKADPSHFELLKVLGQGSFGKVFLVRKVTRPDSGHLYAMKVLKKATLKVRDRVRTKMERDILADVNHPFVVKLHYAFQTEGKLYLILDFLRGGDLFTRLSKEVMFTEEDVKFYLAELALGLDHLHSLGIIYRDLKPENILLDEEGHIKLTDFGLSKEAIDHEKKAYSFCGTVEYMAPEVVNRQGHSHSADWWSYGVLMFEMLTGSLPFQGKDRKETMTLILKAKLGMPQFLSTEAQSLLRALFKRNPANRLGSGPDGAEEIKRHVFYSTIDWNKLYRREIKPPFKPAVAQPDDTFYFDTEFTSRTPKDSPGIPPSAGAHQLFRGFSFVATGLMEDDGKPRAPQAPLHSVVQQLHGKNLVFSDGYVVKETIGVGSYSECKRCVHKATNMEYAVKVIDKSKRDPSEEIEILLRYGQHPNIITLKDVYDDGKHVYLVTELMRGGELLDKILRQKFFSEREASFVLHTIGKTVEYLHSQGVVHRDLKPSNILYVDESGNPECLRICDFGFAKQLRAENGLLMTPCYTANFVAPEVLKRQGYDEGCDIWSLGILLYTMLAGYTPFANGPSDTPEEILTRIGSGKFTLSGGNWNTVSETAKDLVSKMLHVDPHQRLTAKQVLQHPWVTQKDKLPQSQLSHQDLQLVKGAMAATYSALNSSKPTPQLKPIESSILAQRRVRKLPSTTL

N#Cc1cc(-c2ncnc(Nc3ccc(N4CCN(C5COC5)CC4)cc3)n2)ccc1OC1CCOCC1 [Compound 1, 5-(4-((4-(4-(oxetan-3-yl)piperazin-1-yl)phenyl)amino)-1,3,5-triazin-2-yl)-2-((tetrahydro-2H-pyran-4-yl)oxy)benzonitrile]
inhibition (off-target kinases [1]; read-out: % Inhibition 1): 6% | inhibition (off-target kinases [1]; read-out: % Inhibition 2): 3% | inhibition (off-target kinases [1]; read-out: % Inhibition Avg): 4% | inhibition (off-target kinases [2]; read-out: % Inhibition 1): 3% | inhibition (off-target kinases [2]; read-out: % Inhibition 2): -2% | inhibition (off-target kinases [2]; read-out: % Inhibition Avg): 0% | inhibition (off-target kinases [3]; LanthaScreen Binding, read-out: % Inhibition 1): 48% | inhibition (off-target kinases [3]; LanthaScreen Binding, read-out: % Inhibition 2): 49% | inhibition (off-target kinases [3]; LanthaScreen Binding, read-out: % Inhibition Avg): 49% | inhibition (off-target kinases [3]; ZLYTE, ATP 100, read-out: % Inhibition 1): 20% | inhibition (off-target kinases [3]; ZLYTE, ATP 100, read-out: % Inhibition 2): 21% | inhibition (off-target kinases [3]; ZLYTE, ATP 100, read-out: % Inhibition Avg): 20% | inhibition (off-target kinases [4]; read-out: % Inhibition 1): 37% | inhibition (off-target kinases [4]; read-out: % Inhibition 2): 36% | inhibition (off-target kinases [4]; read-out: % Inhibition Avg): 37% | inhibition (off-target kinases [5]; read-out: % Inhibition 1): 11% | inhibition (off-target kinases [5]; read-out: % Inhibition 2): 10% | inhibition (off-target kinases [5]; read-out: % Inhibition Avg): 10% | inhibition (off-target kinases [6]; read-out: % Inhibition 1): 30% | inhibition (off-target kinases [6]; read-out: % Inhibition 2): 33% | inhibition (off-target kinases [6]; read-out: % Inhibition Avg): 31% | inhibition (off-target kinases [7]; read-out: % Inhibition 1): 15% | inhibition (off-target kinases [7]; read-out: % Inhibition 2): 11% | inhibition (off-target kinases [7]; read-out: % Inhibition Avg): 13% | inhibition (off-target kinases [8]; read-out: % Inhibition 1): 26% | inhibition (off-target kinases [8]; read-out: % Inhibition 2): 34% | inhibition (off-target kinases [8]; read-out: % Inhibition Avg): 30%
